Measured values published in article PMC11579541, “In vitro, in vivo, and in silico approaches for evaluating the preclinical DMPK profiles of ammoxetine, a novel chiral serotonin and norepinephrine reuptake inhibitor” (Frontiers in Pharmacology, 2024).
Values joined by “and” are separate entries in the source; they are usually repeats but may differ in a detail not shown here. Identical values can stand only once.

How the values were obtained:
[1] = biological target: T1, CYP 1A2 (Homo sapiens, UniProt P05177); experiment: Phenotyping with recombinant human CYP 1A2; type: in vitro ADME; set-up: purchased BD (Woburn, USA); conditions: 5 μmol/L, 25 pmol/mL CYP, 1 h
T1 sequence (P05177 1-516): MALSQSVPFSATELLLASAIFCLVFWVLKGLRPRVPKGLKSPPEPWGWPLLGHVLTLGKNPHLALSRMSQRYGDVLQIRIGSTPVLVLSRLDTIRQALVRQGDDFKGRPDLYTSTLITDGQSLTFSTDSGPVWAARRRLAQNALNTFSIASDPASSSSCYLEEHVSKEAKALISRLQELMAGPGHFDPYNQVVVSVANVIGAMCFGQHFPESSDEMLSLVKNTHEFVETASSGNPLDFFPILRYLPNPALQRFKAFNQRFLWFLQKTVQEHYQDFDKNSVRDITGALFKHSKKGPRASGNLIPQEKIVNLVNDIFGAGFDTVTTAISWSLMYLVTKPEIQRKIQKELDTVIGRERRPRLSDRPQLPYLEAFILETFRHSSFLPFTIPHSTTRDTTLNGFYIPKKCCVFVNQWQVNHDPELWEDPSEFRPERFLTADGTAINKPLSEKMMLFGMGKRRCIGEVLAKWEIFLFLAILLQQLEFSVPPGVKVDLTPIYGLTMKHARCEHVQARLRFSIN
Description: (§1) Ammoxetine (final concentration 5 μmol/L) was incubated with recombinant human CYP 3A4, CYP 1A2, CYP 2C9, CYP 2C19, and CYP 2D6 (final concentration 25 pmol/mL) in a 5 mmol/L K2HPO4 buffer at pH 7.4. The incubations were performed in quintuplicate. NADPH (final concentration 1 mmol/L) was added to initiate the incubation process. The mixture was then incubated at 37°C for 1 h. To stop the reaction, 200 μL of ice-cold acetonitrile/methanol (1:1, v/v) containing 500 ng/mL of L-phencynonate (IS) was added. The samples were vortexed for 2 min and centrifuged at 13,800×g and 4°C for 10 min. The supernatants obtained were analyzed using an LC-MS-MS method. To establish appropriate controls, zero-time controls and blank controls in the absence of NADPH were set up in parallel.

[2] = biological target: CYP 3A4 (Homo sapiens, UniProt P08684); experiment: Phenotyping with recombinant human CYP 3A4; type: in vitro ADME; set-up: purchased BD (Woburn, USA); conditions: 5 μmol/L, 25 pmol/mL CYP, 1 h
Description: as §1

Chain of CYP 3A4 (P08684 whole entry): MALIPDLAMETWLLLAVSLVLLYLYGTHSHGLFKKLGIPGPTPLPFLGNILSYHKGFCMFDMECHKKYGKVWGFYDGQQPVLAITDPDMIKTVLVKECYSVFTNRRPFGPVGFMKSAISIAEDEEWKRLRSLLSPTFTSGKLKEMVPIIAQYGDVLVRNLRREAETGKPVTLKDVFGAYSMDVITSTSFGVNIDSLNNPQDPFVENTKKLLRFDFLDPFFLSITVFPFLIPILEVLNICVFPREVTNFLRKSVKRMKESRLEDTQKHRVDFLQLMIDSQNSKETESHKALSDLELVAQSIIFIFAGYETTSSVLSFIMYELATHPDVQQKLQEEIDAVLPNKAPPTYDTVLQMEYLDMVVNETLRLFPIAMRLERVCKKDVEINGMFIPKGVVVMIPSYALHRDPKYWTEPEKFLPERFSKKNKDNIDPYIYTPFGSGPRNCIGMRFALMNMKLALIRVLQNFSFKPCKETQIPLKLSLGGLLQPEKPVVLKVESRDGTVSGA

Transformation ratio% [1]: 14.04±2.29%
residuary concentration of ammoxetine, Mean±SD [1]: 5.89±0.16
Transformation ratio% [2]: 24.49±3.65% and 24.49%
residuary concentration of ammoxetine, Mean±SD [2]: 5.18±0.25
Compound: CNCC[C@H](Oc1cccc2c1OCO2)c1cccs1 [ammoxetine]
